Among the test systems are EKVX NSCLC; M14 melanoma; HOP-92 NSCLC; NCI-H460 lung; BT-549 breast; NCI-H226 lung; HCC-2998 colon; SF-295 CNS; U251 CNS; UACC-62 melanoma; ACHN renal; MDA-N; PC-3 prostate; HS 578T breast.
Common to all, as to assay: growth of human tumour cells (NCI), 48 h

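Exposure lasted 48 hours, with cells grown in 96-well plates and compounds tested at five concentrations. The concentration for full growth arrest is given as TGI.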 A value given as a limit tells only on which side of the number the result lay.

As for `COc1cc(C2S/C(=C/c3ccccc3)C(=O)N2c2cc(Cl)ccc2Cl)cc(OC)c1OC` (stereo not drawn), the TGI is greater than 100 µM with EKVX NSCLC; 62.4 µM with M14 melanoma; greater than 100 µM in the test on HOP-92 NSCLC; greater than 100 µM in the test on NCI-H460 lung; greater than 100 µM in the test on BT-549 breast; greater than 100 µM in the test with NCI-H226 lung. Also, the TGI with HCC-2998 colon, with SF-295 CNS, in the test on U251 CNS, with UACC-62 melanoma, in the test with ACHN renal and in the test on MDA-N was greater than 100 µM throughout. The same compound came in with a TGI with PC-3 prostate greater than 100 µM.

In the case of `Cc1cccc2[nH]c3cc(O)cc(O)c3c(=O)c12`, the TGI in the test with M14 melanoma, in the test on HS 578T breast, in the test on HOP-92 NSCLC, in the test with NCI-H460 lung, in the test with BT-549 breast and in the test on NCI-H226 lung was greater than 10 µM throughout. Also, the TGI in the test on SF-295 CNS, with U251 CNS, with UACC-62 melanoma, in the test with ACHN renal, in the test on MDA-N and in the test with PC-3 prostate was greater than 10 µM throughout.

For the compound `COc1cccc(/C(CC(O)(C(F)(F)F)C(F)(F)F)=N\N(C)C)c1`, the TGI in the test on EKVX NSCLC, with M14 melanoma, in the test on HS 578T breast, with HOP-92 NSCLC, with NCI-H460 lung and with NCI-H226 lung was greater than 100 µM throughout. The TGI in the test with HCC-2998 colon, with SF-295 CNS, with U251 CNS, in the test on UACC-62 melanoma, in the test on ACHN renal and in the test on MDA-N was greater than 100 µM each time. The compound also gave a TGI in the test with PC-3 prostate greater than 100 µM.

Turning to `Oc1ccc(Cl)cc1-c1[nH]c(=S)nc(-c2ccccc2)c1Cl`, the TGI in the test with M14 melanoma, in the test on HS 578T breast, in the test with HOP-92 NSCLC, in the test with NCI-H460 lung, with BT-549 breast and in the test on NCI-H226 lung was greater than 100 µM each time. The TGI is greater than 87.8 µM in the test with SF-295 CNS; 97.9 µM in the test on U251 CNS; greater than 100 µM in the test with ACHN renal; greater than 100 µM in the test on MDA-N; greater than 100 µM with PC-3 prostate.

Take `Cn1c(NN)nc(-c2ccc([N+](=O)[O-])cc2)c(C#N)c1=O`: the TGI is 44.1 µM with EKVX NSCLC; 25 µM in the test on M14 melanoma; 32.9 µM with HS 578T breast; 36.4 µM in the test with NCI-H460 lung; 25.5 µM in the test on BT-549 breast; 28.7 µM in the test with NCI-H226 lung. In addition, the TGI stood at 26.5 µM in the test on HCC-2998 colon; 29.9 µM in the test with SF-295 CNS; 30.8 µM with U251 CNS; 29 µM in the test on UACC-62 melanoma; 24.7 µM with ACHN renal; 24.9 µM in the test on MDA-N. The compound also yielded a TGI in the test on PC-3 prostate of 43.5 µM.

For the compound `O=c1[nH]c(=O)n(C2CC(O)C(CO)O2)cc1OCCc1ccccc1` (stereo not drawn), the TGI with EKVX NSCLC, with M14 melanoma, in the test with HS 578T breast, with BT-549 breast, in the test with NCI-H226 lung and in the test with SF-295 CNS was greater than 100 µM throughout. Further, the TGI with U251 CNS, in the test on UACC-62 melanoma, with ACHN renal, with MDA-N and with PC-3 prostate was greater than 100 µM each time.

On to `COC(=O)Nc1nc2ccc(Oc3ccc4nc(NC(=O)OC)[nH]c4c3)cc2[nH]1`, for which the TGI in the test on EKVX NSCLC is greater than 100 µM; with M14 melanoma, greater than 29.6 µM; with HOP-92 NSCLC it was greater than 100 µM; in the test on NCI-H460 lung, greater than 100 µM; in the test on BT-549 breast, greater than 100 µM; in the test with NCI-H226 lung it was 2.72 µM. In addition, the TGI was greater than 22.7 µM in the test with HCC-2998 colon; greater than 100 µM in the test on SF-295 CNS; 10.9 µM in the test on U251 CNS; greater than 100 µM in the test with UACC-62 melanoma; greater than 100 µM with ACHN renal; greater than 100 µM in the test on MDA-N. Besides, in the test on PC-3 prostate, the TGI was greater than 78.5 µM.

Turning to `CSc1ccccc1P(c1ccccc1SC)c1ccccc1SC`, the TGI in the test with EKVX NSCLC, with M14 melanoma, with HS 578T breast, in the test with HOP-92 NSCLC, in the test with BT-549 breast and in the test with NCI-H226 lung was greater than 100 µM each time. For the same compound, the TGI in the test with SF-295 CNS, in the test on U251 CNS, in the test with UACC-62 melanoma, in the test on ACHN renal and in the test on MDA-N was greater than 100 µM throughout.

Take `O=c1cc(CO)n(CCc2c[nH]c3ccccc23)cc1O`: the TGI in the test with EKVX NSCLC is greater than 100 µM; in the test on M14 melanoma it was greater than 100 µM; in the test with HS 578T breast, greater than 100 µM; with HOP-92 NSCLC it was 99.7 µM; in the test on NCI-H460 lung, greater than 100 µM; in the test on BT-549 breast it was greater than 100 µM. Further, the TGI with SF-295 CNS, in the test on U251 CNS, in the test with UACC-62 melanoma, with ACHN renal, in the test on MDA-N and in the test on PC-3 prostate was greater than 100 µM throughout.

For `O=C(O)CN=C(C(=NCC(=O)O)c1ccccc1)c1ccccc1`, the TGI in the test on EKVX NSCLC, in the test with M14 melanoma, in the test on HS 578T breast, in the test with NCI-H460 lung, in the test with BT-549 breast and in the test on NCI-H226 lung was greater than 100 µM in each case. Also, the TGI with HCC-2998 colon, in the test with SF-295 CNS, in the test with U251 CNS, with UACC-62 melanoma, with ACHN renal and with MDA-N was greater than 100 µM in each case. Moreover, the TGI in the test on PC-3 prostate was greater than 100 µM.

On to `O=c1[nH]c(=O)n(C2CC(O)C(CO)O2)cc1NN=NCCc1ccccc1` (stereo not drawn), for which the TGI with EKVX NSCLC, in the test on M14 melanoma, in the test with HS 578T breast, in the test on NCI-H460 lung, with NCI-H226 lung and in the test on SF-295 CNS was greater than 100 µM throughout. The TGI in the test on U251 CNS, in the test on UACC-62 melanoma, with ACHN renal, with MDA-N and in the test with PC-3 prostate was greater than 100 µM in each case.

Source of the values: PubChem BioAssay (NCI).
